Measurements from patent US10981894B2, “Melanocortin subtype-2 receptor (MC2R) antagonists and uses thereof” (Crinetics Pharmaceuticals, Inc., priority 2018, dated 2021).
pKi: −log10 of the molar value.

Each compound was assayed against hMC2 receptor (Homo sapiens, UniProt Q01718) (assay: hMC2 membrane binding assay ([125I]ACTH (1-39) Tyr23, SPA)). Conditions: crude hMC2R membranes from CRE-bla-CHO-K1 cells expressing hMC2 receptor and hMRAP; [125I]ACTH (1-39) Tyr23 0.2 nM; 1.5 hours at room temperature; read-out: MC2R binding potency.
Chain of hMC2 receptor (Q01718 whole entry): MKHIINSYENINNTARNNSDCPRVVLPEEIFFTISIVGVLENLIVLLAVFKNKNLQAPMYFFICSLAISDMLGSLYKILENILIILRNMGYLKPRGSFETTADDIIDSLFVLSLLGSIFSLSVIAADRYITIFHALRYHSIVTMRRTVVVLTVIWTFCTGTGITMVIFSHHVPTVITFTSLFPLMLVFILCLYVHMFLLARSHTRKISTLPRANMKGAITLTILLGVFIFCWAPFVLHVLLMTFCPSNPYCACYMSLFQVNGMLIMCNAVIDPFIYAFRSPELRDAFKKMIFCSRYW
Chain of hMC2 receptor (Q8TCY5 whole entry partner): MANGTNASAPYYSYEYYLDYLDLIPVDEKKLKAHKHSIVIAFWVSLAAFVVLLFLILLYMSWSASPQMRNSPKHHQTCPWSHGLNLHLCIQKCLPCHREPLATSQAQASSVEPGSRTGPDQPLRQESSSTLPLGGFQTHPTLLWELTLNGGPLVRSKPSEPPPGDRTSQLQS
Set-up: scale not given here
In short: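 CRE-bla-CHO-K1 membranes co-expressing hMC2 receptor and hMRAP, preincubated with WGA PVT SPA beads in pH 7.4 HEPES/MgCl2/CaCl2/0.2% BSA buffer. Compounds (typically 0–10,000 nM final) compete with 0.2 nM [125I]ACTH(1-39) Tyr23 for 1.5 h at room temperature. SPA counts give Ki by non-linear regression.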
With `CC[C@@H]1CN(C(=O)c2ccc(C(F)(F)F)cc2Cl)CCN1c1ccc(-c2ccccc2Cl)cc1C(=O)NCCN` [Compound 1-6, N-(2-aminoethyl)-2′-chloro-4-[(2R)-4-[2-chloro-4-(trifluoromethyl)benzoyl]-2-ethylpiperazin-1-yl]-[1,1′-biphenyl]-3-carboxamide] the pKi was 7.00 to 8.00. `CCOc1ccccc1-c1ccc(N2CCN(C(=O)N3CCc4cc(F)cc(C#N)c43)C[C@H]2CC)c(C(=O)NC2CN(C)C2)n1` [Compound 1-424, 3-[(2R)-4-(7-cyano-5-fluoro-2,3-dihydro-1H-indole-1-carbonyl)-2-ethylpiperazin-1-yl]-6-(2-ethoxyphenyl)-N-(1-methylazetidin-3-yl)pyridine-2-carboxamide] showed a pKi greater than 8.00. `CCOc1ncccc1-c1ccc(N2CCN(C(=O)c3ccc(Cl)cc3C(F)(F)F)C[C@H]2CC)c(C(=O)NC2CNC2)c1F` [Compound 1-198, N-(azetidin-3-yl)-6-[(2R)-4-[4-chloro-2-(trifluoromethyl)benzoyl]-2-ethylpiperazin-1-yl]-3-(2-ethoxypyridin-3-yl)-2-fluorobenzamide] was tested, and the pKi was greater than 8.00. `CC[C@@H]1CN(C(=O)c2ccc(C(F)(F)F)cc2Cl)CCN1c1ccc(-c2ccccc2C(=O)OC)cc1C(=O)NCCN` [Compound 1-19, methyl (R)-3′-((2-aminoethyl)carbamoyl)-4′-(4-(2-chloro-4-(trifluoromethyl)benzoyl)-2-ethylpiperazin-1-yl)-[1,1′-biphenyl]-2-carboxylate] gave a pKi of 7.00 to 8.00. `CCOc1ccccc1-c1ccc(N2CCN(C(=O)c3ccc(C(F)(F)F)cc3Cl)C[C@H]2CC)c(C(=O)NCCCN)c1` [Compound 1-23, N-(3-aminopropyl)-4-[(2R)-4-[2-chloro-4-(trifluoromethyl)benzoyl]-2-ethylpiperazin-1-yl]-2′-ethoxy-[1,1′-biphenyl]-3-carboxamide] showed a pKi of 7.00 to 8.00. `CCOc1ncccc1-c1ccc(N2CCN(C(=O)c3ccc(F)cc3-c3ccc(CN)cc3)C[C@H]2CC)c(C(=O)NCCN)c1` [Compound 1-36, N-(2-aminoethyl)-2-[(2R)-4-[4′-(aminomethyl)-5-fluoro-[1,1′-biphenyl]-2-carbonyl]-2-ethylpiperazin-1-yl]-5-(2-ethoxypyridin-3-yl)benzamide] gave a pKi greater than 8.00. `CCOc1ncccc1-c1ccc(N2CCN(C(=O)C3(C(F)(F)F)CCCC3)C[C@H]2CC)c(C(=O)NC[C@@H]2CCN2)n1` [Compound 1-329, N-{[(2S)-azetidin-2-yl]methyl}-2′-ethoxy-5-[(2R)-2-ethyl-4-[1-(trifluoromethyl)cyclopentanecarbonyl]piperazin-1-yl]-[2,3′-bipyridine]-6-carboxamide] was tested, and the pKi was greater than 8.00. Compound `CC[C@@H]1CN(C(=O)c2ccc(OC)nc2C(F)(F)F)CCN1c1ccc(-c2cccnc2OC)nc1C(=O)NC1CN(C)C1` [Compound 1-246, 5-[(2R)-2-ethyl-4-[6-methoxy-2-(trifluoromethyl)pyridine-3-carbonyl]piperazin-1-yl]-2′-methoxy-N-(1-methylazetidin-3-yl)-[2,3′-bipyridine]-6-carboxamide] has a pKi greater than 8.00. `CCOc1ncccc1-c1ccc(N2CCN(C(=O)c3ccc(F)cc3Cl)C[C@H]2CC)c(C(=O)N[C@@H]2CCNC2)c1` [Compound 1-82, 2-[(2R)-4-(2-chloro-4-fluorobenzoyl)-2-ethylpiperazin-1-yl]-5-(2-ethoxypyridin-3-yl)-N-[(3R)-pyrrolidin-3-yl]benzamide] showed a pKi greater than 8.00. `CCOc1ncccc1-c1ccc(N2CCN(C(=O)C3(C(F)(F)F)CCCC3)C[C@H]2CC)c(C(=O)NC[C@@H]2CCN2C)n1` [Compound 1-331, 2′-ethoxy-5-[(2R)-2-ethyl-4-[1-(trifluoromethyl)cyclopentanecarbonyl]piperazin-1-yl]-N-{[(2S)-1-methylazetidin-2-yl]methyl}-[2,3′-bipyridine]-6-carboxamide] showed a pKi greater than 8.00. For `CCOc1ccc(C(=O)N2CCN(c3ccc(-c4cccnc4OCC)nc3C(=O)NC[C@@H]3CCN3C)[C@H](CC)C2)c(C(F)(F)F)n1` [Compound 1-257, 2′-ethoxy-5-[(2R)-4-[6-ethoxy-2-(trifluoromethyl)pyridine-3-carbonyl]-2-ethylpiperazin-1-yl]-N-{[(2S)-1-methylazetidin-2-yl]methyl}-[2,3′-bipyridine]-6-carboxamide], the pKi was greater than 8.00. With `CCOc1ncccc1-c1ccc(N2CCN(C(=O)O[C@@H](c3ccccc3)C(F)(F)F)C[C@H]2CC)c(C(=O)N[C@@H]2CCNC2)n1` [Compound 1-377, (1S)-2,2,2-trifluoro-1-phenylethyl (3R)-4-(2′-ethoxy-6-{[(3R)-pyrrolidin-3-yl]carbamoyl}-[2,3′-bipyridin]-5-yl)-3-ethylpiperazine-1-carboxylate] the pKi was greater than 8.00. With `CCOc1ncccc1-c1ccc(N2CCN(C(=O)c3ccc(F)cc3C(F)F)C[C@H]2CC)c(C(=O)N[C@@H]2CCNC2)n1` [Compound 1-278, 5-[(2R)-4-[2-(difluoromethyl)-4-fluorobenzoyl]-2-ethylpiperazin-1-yl]-2′-ethoxy-N-[(3R)-pyrrolidin-3-yl]-[2,3′-bipyridine]-6-carboxamide] the pKi was greater than 8.00. For `CCOc1ncccc1-c1ccc(N2CCN(C(=O)c3ccc(Cl)cc3C(F)(F)F)C[C@H]2CC)c(C(=O)N[C@H]2CCN(C)C2)c1F` [Compound 1-201, 6-[(2R)-4-[4-chloro-2-(trifluoromethyl)benzoyl]-2-ethylpiperazin-1-yl]-3-(2-ethoxypyridin-3-yl)-2-fluoro-N-[(3S)-1-methylpyrrolidin-3-yl]benzamide], the pKi was greater than 8.00. `CCOc1ncccc1-c1ccc(N2CCN(C(=O)c3ccc(F)cc3N3CC(N)C3)C[C@H]2CC)c(C(=O)NCCN(C)C)c1` [Compound 1-148, 2-[(2R)-4-[2-(3-aminoazetidin-1-yl)-4-fluorobenzoyl]-2-ethylpiperazin-1-yl]-N-[2-(dimethylamino)ethyl]-5-(2-ethoxypyridin-3-yl)benzamide] gave a pKi greater than 8.00. `CCOc1ccccc1-c1ccc(N2CCN(C(=O)c3ccc(Cl)cc3C(F)F)C[C@H]2CC)c(C(=O)N[C@@H]2CCNC2)n1` [Compound 1-288, 3-[(2R)-4-[4-chloro-2-(difluoromethyl)benzoyl]-2-ethylpiperazin-1-yl]-6-(2-ethoxyphenyl)-N-[(3R)-pyrrolidin-3-yl]pyridine-2-carboxamide] showed a pKi greater than 8.00. In the case of `CCOc1ncccc1-c1ccc(N2CCN(C(=O)c3ccc(Cl)cc3C#N)C[C@H]2CC)c(C(=O)N[C@@H]2CCNC2)n1` [Compound 1-277, 5-[(2R)-4-(4-chloro-2-cyanobenzoyl)-2-ethylpiperazin-1-yl]-2′-ethoxy-N-[(3R)-pyrrolidin-3-yl]-[2,3′-bipyridine]-6-carboxamide], the pKi was greater than 8.00. With `CC[C@@H]1CN(C(=O)c2ccc(Cl)cc2C(F)(F)F)CCN1c1ccc(-c2ccccc2OC)cc1CN` [Compound 2-3, 1-{4-[(2R)-4-[4-chloro-2-(trifluoromethyl)benzoyl]-2-ethylpiperazin-1-yl]-2′-methoxy-[1,1′-biphenyl]-3-yl}methanamine] the pKi was 7.00 to 8.00. `CCOc1ncccc1-c1ccc(N2CCN(C(=O)c3ccc(OC)nc3C(F)(F)F)C[C@H]2CC)c(C(=O)N[C@@H]2CCN(C)C2)c1F` [Compound 1-270, 3-(2-ethoxypyridin-3-yl)-6-[(2R)-2-ethyl-4-[6-methoxy-2-(trifluoromethyl)pyridine-3-carbonyl]piperazin-1-yl]-2-fluoro-N-[(3R)-1-methylpyrrolidin-3-yl]benzamide] gave a pKi greater than 8.00.
